Assay results published in patent publication US11998610B2, “Conjugates and methods of using the same” (Flagship Pioneering Innovations V, Inc., priority 2018, dated 2024).

Assays:
[1] = system: E. coli Nissle 1917; assay: Payload release in the presence of fecal matter, ClbP positive E. coli; format: cell-based; conditions: 10 μM compound, anaerobic, 37° C., 20 h, LCMS
Text: (§1) This example is representative of the methods described in Example 103. Fecal samples were subjected to metagenomic whole-genome shotgun sequencing followed by querying the dataset for the presence of the clbP gene or by attempting to amplify the gene with primers specific for it by qPCR. Samples that gave a signal below the detection limit were used in subsequent steps. The fecal sample was resuspended as a 15% (w/v) slurry in Anaerobic Phosphate Buffer Saline.
(§2) Following steps 1 and 2 as detailed in Example 98, E. coli CFT073 ATCC 700928, E. coli Nissle 1917, or E. coli BL21(DE3) were grown in liquid culture.
(§3) In an anaerobic chamber, the E. coli strains were added to the fecal samples obtained in step 1 at a dilution level calculated to represent 0, 1, 10, 50, 90, 99, or 100% of all organisms present in PRAS dilution blank on a 200 μL volume. The test compound (10 μM final concentration) was added to the mixture. The test compound was also added to a bacteria-free media control under similar conditions. The plate was sealed and incubated at 37° C. for 20 h. Under similar conditions, a standard curve of both the starting material and the payload compound was made in bacteria-free media.
(§4) After 20 h, an aliquot was tested for breakdown and release of a payload by LCMS by diluting serially to a final dilution of 1:100 first with Acetonitrile (10× dilution) and then with (1:1) Mobile Phase A-0.1% Formic Acid in Water:Mobile Phase B-0.1% Formic acid in Acetonitrile (1 OX dilution), with absolute quantification compared to the external standard curve. In an ideal case, the amount of payload released in the reaction(s) with ClbP-encoding E. coli was >75% of the theoretical maximum, and none was released in the E. coli BL21(DE3) and media-alone conditions. In an acceptable case, the amount of payload released in the reaction(s) with ClbP-encoding E. coli was 25-75% of the theoretical maximum, and <25% of the theoretical maximum was released in the E. coli BL21(DE3) and media-alone conditions. In a non-preferred case, the amount of payload released in the reactions(s) with ClbP-encoding E. coli was <25% of the theoretical maximum, and >25% of the theoretical maximum was released in the E. coli BL21(DE3) and media-alone conditions.

[2] = system: E. coli BL21(DE3); assay: Payload release in the presence of fecal matter, ClbP negative E. coli; format: cell-based; conditions: 10 μM compound, anaerobic, 37° C., 20 h, LCMS
Text: as §1, §2, §3, §4

[3] = system: CT26.CL25 cells; assay: Cell viability readout (CellTiter-Glo) with bacteria-free media; format: cell-based, mouse; conditions: 10 nM compound, CT26.CL25 cells, 72 h, CellTiter-Glo
Procedure: Example 100: Cell-Based Assay of Bacterial Enzymes with Mammalian CT26.CL25 Mouse Colorectal Carcinoma Viability Readout
Bacteria-free media was incubated with the indicated test compound. ((R)—N1-(2-(methylamino)ethyl)-2-octanamidosuccinamide, a recognition element-linker conjugate lacking a payload, was serially diluted 1:1000 in DMSO and […] in medium+10% FBS to give a final concentration of 10 nM. Compound 35, Compound 76, Compound 77, Compound 78, Compound 79, and SN-38 were serially diluted 1:1000 in DMSO and 1:1000 in medium to give a final concentration of 10 nM, and then the bacteria-free supernatants were tested for their ability to kill mammalian cells. As an additional control, the test compound will also be incubated with bacteria-free media. The above steps can also be performed in the presence of E. coli (CFT073 ATCC 700928, Nissle 1917, or BL21 (DE3)) to effect cleavage of the conjugates of the application.
On Day 1, CT26.CL25 cells (15,000 cells/well) were seeded in triplicate into a 24 well plate and incubated overnight in 100 μL of complete medium. The reactions (bacteria or media blank) was pelleted by centrifugation, and then the supernatant was passed through a 0.2 μm sterile filter to remove residual bacteria.
On Day 2, 300 μL of a 10 nM solution of each compound in media were applied to separate wells of CT26.CL25 cells as prepared on Day 1. The cells were incubated at 37° C. for 72 h. After this point, viability was assessed using a CellTiter-Glo kit.
Binning of the compounds was achieved by measuring cell growth or arrest (e.g. remaining cells are >90% viable, >80% viable, >70% viable, >60% viable, >50% viable, >40% viable, >30% viable, >20% viable, or >10% viable).

## CCCCCCCC(=O)N[C@H](CC(N)=O)C(=O)NCCN(C)C(=O)Oc1ccc2c(C)cc(=O)oc2c1 [Example 70, 4-methyl-2-oxo-2H-chromen-7-yl (R)-(2-(4-amino-2-octanamido-4-oxobutanamido)ethyl)(methyl)carbamate]
[1]
  % payload released in ClbP positive (Nissle 1917) at 1:1 ratio of E. coli to fecal bacteria: 25.1%
[2]
  % payload released in ClbP negative (BL21 DE3) at 1:1 ratio of E. coli to fecal bacteria: 1.9%

## CCCCCCCCCCCCCC(=O)N[C@H](CC(N)=O)C(=O)N[C@@H](C)CCC(=O)O[C@]1(CC)C(=O)OCc2c1cc1n(c2=O)Cc2c-1nc1ccc(O)cc1c2CC [Example 35, (S)-4,11-diethyl-9-hydroxy-3,14-dioxo-3,4,12,14-tetrahydro-1H-pyrano[3′,4′:6,7]indolizino[1,2-b]quinolin-4-yl (S)-4-((R)-4-amino-4-oxo-2-tetradecanamidobutanamido)pentanoate]
[1]
  % payload released in ClbP positive (Nissle 1917) at 1:1 ratio of E. coli to fecal bacteria: 0.9%
[2]
  % payload released in ClbP negative (BL21 DE3) at 1:1 ratio of E. coli to fecal bacteria: 0.6%
[3]
  Bacteria-free media (Luminescence, average of three runs): 380490
